Assay results: patent US12180193B2, “Accelerating fibrosarcoma protein degrading compounds and associated methods of use” (Arvinas Operations, Inc., priority 2020, dated 2024)

Tests used:
[1] = biological target: T1, BRAF V600E (Homo sapiens, UniProt P15056, V600E); assay: Cellular assay of target protein degradation, T-Rex 293 cells stably transfected with HA-BRAF_V600E (HA immunofluorescence, high content imaging); format: cell-based; conditions: T-Rex 293 HA-BRAF V600E; for DC50: half maximal degradation, read-out: BRaf V600E DC50; for Dmax: maximum degradation observed
T1 construct: expressed in transfected cells
T1 sequence (P15056 whole entry V600E): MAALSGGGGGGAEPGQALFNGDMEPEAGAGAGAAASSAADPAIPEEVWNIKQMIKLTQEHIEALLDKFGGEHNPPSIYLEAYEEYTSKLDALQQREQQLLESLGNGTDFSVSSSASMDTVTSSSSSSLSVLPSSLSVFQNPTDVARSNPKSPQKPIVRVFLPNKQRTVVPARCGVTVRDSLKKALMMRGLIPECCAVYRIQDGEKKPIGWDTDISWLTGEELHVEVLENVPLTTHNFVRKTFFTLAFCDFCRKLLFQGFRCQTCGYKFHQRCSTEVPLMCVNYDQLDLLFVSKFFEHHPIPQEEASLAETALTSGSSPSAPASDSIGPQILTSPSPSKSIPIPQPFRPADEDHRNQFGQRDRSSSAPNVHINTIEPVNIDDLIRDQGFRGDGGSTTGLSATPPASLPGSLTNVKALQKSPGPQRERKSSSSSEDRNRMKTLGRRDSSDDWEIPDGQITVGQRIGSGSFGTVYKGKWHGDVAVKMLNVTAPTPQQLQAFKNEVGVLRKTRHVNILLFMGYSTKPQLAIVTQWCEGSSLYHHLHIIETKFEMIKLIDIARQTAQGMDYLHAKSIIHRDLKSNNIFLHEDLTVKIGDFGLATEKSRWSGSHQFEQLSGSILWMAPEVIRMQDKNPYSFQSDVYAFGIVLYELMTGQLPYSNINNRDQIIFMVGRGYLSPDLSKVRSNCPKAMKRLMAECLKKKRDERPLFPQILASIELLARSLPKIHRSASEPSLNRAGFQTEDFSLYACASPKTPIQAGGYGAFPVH
Method in brief: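 HA immunofluorescence on fixed cells, imaged by high-content reader, measured loss of HA-BRAF V600E in stably transfected T-Rex 293 cells induced with 1 ng/mL doxycycline. Compounds were applied for 24 h at 37 °C (final 0.1 nM–1 μM, 0.1% DMSO); DC50 and Dmax (% of control) were reported.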

[2] = biological target: T2, BRAF G466V (Homo sapiens, UniProt P15056, G466V); assay: Cellular assay of target protein degradation, T-Rex 293 cells stably transfected with HA-BRAF G466V (HA immunofluorescence, high content imaging); format: cell-based; conditions: T-Rex 293 HA-BRAF G466V; for DC50: half maximal degradation, read-out: BRaf G466V DC50; for Dmax: maximum degradation observed
T2 construct: expressed in transfected cells
T2 sequence (P15056 whole entry G466V): as the sequence (P15056 whole entry V600E) above, with G466V, E600V counted along it
Method in brief: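 HA-BRAF G466V levels were read by HA immunofluorescence and high-content imaging after 24 h compound exposure (final 30 nM–3 pM, 0.1% DMSO, 37 °C). Expression was induced with 0.75 ng/mL doxycycline. Outputs: half-maximal degradation concentration (DC50) and maximal degradation (Dmax) relative to control.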

| DC50 [1] [nM] | Dmax [1] [%] | DC50 [2] [nM] | Dmax [2] [%] | SMILES |
| --- | --- | --- | --- | --- |
| < 5 | 35 to 70 | < 1 | 35 to 70 | O=C1CCC(N2Cc3cc(C4CCN(CC5(O)CCN(c6ccc(-c7cnc8[nH]cc(C(=O)c9c(F)ccc(NS(=O)(=O)N%10CC[C@@H](F)C%10)c9F)c8c7)cc6)CC5)CC4)ccc3C2=O)C(=O)N1 (stereo partly drawn) [Compound 119, (3R)-N-[3-(5-{4-[4-({4-[2-(2,6-dioxopiperidin-3-yl)-1-oxo-2,3-dihydro-1H-isoindol-5-yl]piperidin-1-yl}methyl)-4-hydroxypiperidin-1-yl]phenyl}-1H-pyrrolo[2,3-b]pyridine-3-carbonyl)-2,4-difluorophenyl]-3-fluoropyrrolidine-1-sulfonamide] |
| 5 to 50 | 35 to 70 | 1 to 10 | > 70 | O=C1CCC(N2Cc3cc(OCCCCN4CCN(c5ccc(-c6cnc7[nH]cc(C(=O)c8c(F)ccc(NS(=O)(=O)N9CC[C@@H](F)C9)c8F)c7c6)cn5)CC4)ccc3C2=O)C(=O)N1 (stereo partly drawn) [Compound 120, (3R)-N-[3-(5-{6-[4-(4-{[2-(2,6-dioxopiperidin-3-yl)-1-oxo-2,3-dihydro-1H-isoindol-5-yl]oxy}butyl)piperazin-1-yl]pyridin-3-yl}-1H-pyrrolo[2,3-b]pyridine-3-carbonyl)-2,4-difluorophenyl]-3-fluoropyrrolidine-1-sulfonamide] |
| 5 to 50 | 35 to 70 | 1 to 10 | > 70 | O=C1CCC(N2Cc3cc(OCCCCN4CCN(c5ncc(-c6cnc7[nH]cc(C(=O)c8c(F)ccc(NS(=O)(=O)N9CC[C@@H](F)C9)c8F)c7c6)cn5)CC4)ccc3C2=O)C(=O)N1 (stereo partly drawn) [Compound 121, (3R)-N-[3-(5-{2-[4-(4-{[2-(2,6-dioxopiperidin-3-yl)-1-oxo-2,3-dihydro-1H-isoindol-5-yl]oxy}butyl)piperazin-1-yl]pyrimidin-5-yl}-1H-pyrrolo[2,3-b]pyridine-3-carbonyl)-2,4-difluorophenyl]-3-fluoropyrrolidine-1-sulfonamide] |
| 5 to 50 | 35 to 70 | 1 to 10 | > 70 | O=C1CCC(N2Cc3cc(OC[C@@H](O)CN4CC5(C4)CN(c4ccc(-c6cnc7[nH]cc(C(=O)c8c(F)ccc(NS(=O)(=O)N9CC[C@@H](F)C9)c8F)c7c6)cc4)C5)ccc3C2=O)C(=O)N1 (stereo partly drawn) [Compound 122, (3R)-N-{3-[5-(4-{6-[(2S)-3-{[2-(2,6-dioxopiperidin-3-yl)-1-oxo-2,3-dihydro-1H-isoindol-5-yl]oxy}-2-hydroxypropyl]-2,6-diazaspiro[3.3]heptan-2-yl}phenyl)-1H-pyrrolo[2,3-b]pyridine-3-carbonyl]-2,4-difluorophenyl}-3-fluoropyrrolidine-1-sulfonamide] |
| 5 to 50 | 35 to 70 | 1 to 10 | > 70 | O=C1CC[C@H](N2Cc3cc(OC[C@H](O)CN4CC5(C4)CN(c4ccc(-c6cnc7[nH]cc(C(=O)c8c(F)ccc(NS(=O)(=O)N9CC[C@@H](F)C9)c8F)c7c6)cc4)C5)ccc3C2=O)C(=O)N1 [Compound 123, (3R)—N-[3-[5-[4-[6-[(2R)-3-[2-[(3S)-2,6-dioxo-3-piperidyl]-1-oxo-isoindolin-5-yl]oxy-2-hydroxy-propyl]-2,6-diazaspiro[3.3]heptan-2-yl]phenyl]-1H-pyrrolo[2,3-b]pyridine-3-carbonyl]-2,4-difluoro-phenyl]-3-fluoro-pyrrolidine-1-sulfonamide] |
| 5 to 50 | 35 to 70 | 1 to 10 | > 70 | O=C1CC[C@@H](N2Cc3cc(OC[C@H](O)CN4CC5(C4)CN(c4ccc(-c6cnc7[nH]cc(C(=O)c8c(F)ccc(NS(=O)(=O)N9CC[C@@H](F)C9)c8F)c7c6)cc4)C5)ccc3C2=O)C(=O)N1 [Compound 124, (3R)—N-[3-[5-[4-[6-[(2R)-3-[2-[(3R)-2,6-dioxo-3-piperidyl]-1-oxo-isoindolin-5-yl]oxy-2-hydroxy-propyl]-2,6-diazaspiro[3.3]heptan-2-yl]phenyl]-1H-pyrrolo[2,3-b]pyridine-3-carbonyl]-2,4-difluoro-phenyl]-3-fluoro-pyrrolidine-1-sulfonamide] |
| 5 to 50 | 35 to 70 | 1 to 10 | > 70 | O=C1CCC(N2Cc3cc(C4CCN(C[C@@H]5CCN(c6ccc(-c7cnc8[nH]cc(C(=O)c9c(F)ccc(NS(=O)(=O)N%10CC[C@@H](F)C%10)c9F)c8c7)cc6)C[C@@H]5F)CC4)ccc3C2=O)C(=O)N1 (stereo partly drawn) [Compound 125, (3R)-N-[3-(5-{4-[(3R,4S)-4-({4-[2-(2,6-dioxopiperidin-3-yl)-1-oxo-2,3-dihydro-1H-isoindol-5-yl]piperidin-1-yl}methyl)-3-fluoropiperidin-1-yl]phenyl}-1H-pyrrolo[2,3-b]pyridine-3-carbonyl)-2,4-difluorophenyl]-3-fluoropyrrolidine-1-sulfonamide] |
| 5 to 50 | 35 to 70 | 1 to 10 | 35 to 70 | CN(CCN1CCN(c2ccc(-c3cnc4[nH]cc(C(=O)c5c(F)ccc(NS(=O)(=O)N6CC[C@@H](F)C6)c5F)c4c3)cc2)CC1)[C@H]1C[C@@H](Oc2ccc3c(c2)CN(C2CCC(=O)NC2=O)C3=O)C1 (stereo partly drawn) [Compound 126, (3R)-N-[2,4-difluoro-3-(5-{4-[4-(2-{methyl[(1s,3s)-3-{[2-(2,6-dioxopiperidin-3-yl)-1-oxo-2,3-dihydro-1H-isoindol-5-yl]oxy}cyclobutyl]amino}ethyl)piperazin-1-yl]phenyl}-1H-pyrrolo[2,3-b]pyridine-3-carbonyl)phenyl]-3-fluoropyrrolidine-1-sulfonamide] |
| < 5 | < 35 | 1 to 10 | > 70 | O=C1CCC(N2Cc3cc(C4CCN(CCC5CCN(c6ccc(-c7cnc8[nH]cc(C(=O)c9c(F)ccc(NS(=O)(=O)N%10CC[C@@H](F)C%10)c9F)c8c7)cc6)CC5)CC4)ccc3C2=O)C(=O)N1 (stereo partly drawn) [Compound 127, (3R)-N-[3-(5-{4-[4-(2-{4-[2-(2,6-dioxopiperidin-3-yl)-1-oxo-2,3-dihydro-1H-isoindol-5-yl]piperidin-1-yl}ethyl)piperidin-1-yl]phenyl}-1H-pyrrolo[2,3-b]pyridine-3-carbonyl)-2,4-difluorophenyl]-3-fluoropyrrolidine-1-sulfonamide] |
| 5 to 50 | 35 to 70 | 1 to 10 | > 70 | O=C1CC[C@H](N2Cc3cc(C[C@@H](O)CN4CC5(C4)CN(c4ccc(-c6cnc7[nH]cc(C(=O)c8c(F)ccc(NS(=O)(=O)N9CC[C@@H](F)C9)c8F)c7c6)cc4)C5)ccc3C2=O)C(=O)N1 [Compound 128, (3R)-N-{3-[5-(4-{6-[(2R)-3-{2-[(3S)-2,6-dioxopiperidin-3-yl]-1-oxo-2,3-dihydro-1H-isoindol-5-yl}-2-hydroxypropyl]-2,6-diazaspiro[3.3]heptan-2-yl}phenyl)-1H-pyrrolo[2,3-b]pyridine-3-carbonyl]-2,4-difluorophenyl}-3-fluoropyrrolidine-1-sulfonamide] |
| 5 to 50 | 35 to 70 | 1 to 10 | > 70 | O=C1CC[C@@H](N2Cc3cc(C[C@@H](O)CN4CC5(C4)CN(c4ccc(-c6cnc7[nH]cc(C(=O)c8c(F)ccc(NS(=O)(=O)N9CC[C@@H](F)C9)c8F)c7c6)cc4)C5)ccc3C2=O)C(=O)N1 [Compound 129, (3R)-N-{3-[5-(4-{6-[(2R)-3-{2-[(3R)-2,6-dioxopiperidin-3-yl]-1-oxo-2,3-dihydro-1H-isoindol-5-yl}-2-hydroxypropyl]-2,6-diazaspiro[3.3]heptan-2-yl}phenyl)-1H-pyrrolo[2,3-b]pyridine-3-carbonyl]-2,4-difluorophenyl}-3-fluoropyrrolidine-1-sulfonamide] |
| 5 to 50 | 35 to 70 | 1 to 10 | 35 to 70 | O=C1CCC(N2Cc3cc(C[C@H](O)CN4CC5(C4)CN(c4ccc(-c6cnc7[nH]cc(C(=O)c8c(F)ccc(NS(=O)(=O)N9CC[C@@H](F)C9)c8F)c7c6)cc4)C5)ccc3C2=O)C(=O)N1 (stereo partly drawn) [Compound 130, (3R)-N-{3-[5-(4-{6-[(2S)-3-[2-(2,6-dioxopiperidin-3-yl)-1-oxo-2,3-dihydro-1H-isoindol-5-yl]-2-hydroxypropyl]-2,6-diazaspiro[3.3]heptan-2-yl}phenyl)-1H-pyrrolo[2,3-b]pyridine-3-carbonyl]-2,4-difluorophenyl}-3-fluoropyrrolidine-1-sulfonamide] |
| 5 to 50 | 35 to 70 | 1 to 10 | 35 to 70 | O=C1CCC(N2Cc3cc(N4CCN(CC5CN(c6ccc(-c7cnc8[nH]cc(C(=O)c9c(F)ccc(NS(=O)(=O)N%10CC[C@@H](F)C%10)c9F)c8c7)cc6F)C5)CC4)ccc3C2=O)C(=O)N1 (stereo partly drawn) [Compound 131, (3R)-N-[3-(5-{4-[3-({4-[2-(2,6-dioxopiperidin-3-yl)-1-oxo-2,3-dihydro-1H-isoindol-5-yl]piperazin-1-yl}methyl)azetidin-1-yl]-3-fluorophenyl}-1H-pyrrolo[2,3-b]pyridine-3-carbonyl)-2,4-difluorophenyl]-3-fluoropyrrolidine-1-sulfonamide] |
